Measured values as given in US12227500B2, “Substituted pyrrolo[2,3-b]pyridines for suppressing toxic endoplasmic reticulum stress” (THE TRUSTEES OF COLUMBIA UNIVERSITY IN THE CITY OF NEW YORK, priority 2018, dated 2025).
Values joined by “and” are separate entries in the source; they are usually repeats but may differ in a detail not shown here. Identical values can stand only once. Like-named read-outs stand apart in the source and are kept apart here.

Legend:
human ES motor neurons = experiment: Rescue of CPA toxicity by kinase inhibitors in dilution series (FIG. 3); conditions: dilution series, FIG. 3
HGK/MAP4K4 = HGK/MAP4K4 (Homo sapiens, UniProt O95819); experiment: Radiolabeled ATP kinase assay (Reaction Biology Corp.), HGK; format: biochemical; design: purchased Reaction Biology Corp; conditions: 10 μM ATP, read-out: % Enzyme Activity (relative to DMSO controls), HGK/MAP4K4, Data 1; for remaining activity at 0.025 µM: [Cmpd] 0.025 μM; for remaining activity at 0.1 µM: [Cmpd] 0.1 μM
HGK/MAP4K4, sequence (O95819 whole entry): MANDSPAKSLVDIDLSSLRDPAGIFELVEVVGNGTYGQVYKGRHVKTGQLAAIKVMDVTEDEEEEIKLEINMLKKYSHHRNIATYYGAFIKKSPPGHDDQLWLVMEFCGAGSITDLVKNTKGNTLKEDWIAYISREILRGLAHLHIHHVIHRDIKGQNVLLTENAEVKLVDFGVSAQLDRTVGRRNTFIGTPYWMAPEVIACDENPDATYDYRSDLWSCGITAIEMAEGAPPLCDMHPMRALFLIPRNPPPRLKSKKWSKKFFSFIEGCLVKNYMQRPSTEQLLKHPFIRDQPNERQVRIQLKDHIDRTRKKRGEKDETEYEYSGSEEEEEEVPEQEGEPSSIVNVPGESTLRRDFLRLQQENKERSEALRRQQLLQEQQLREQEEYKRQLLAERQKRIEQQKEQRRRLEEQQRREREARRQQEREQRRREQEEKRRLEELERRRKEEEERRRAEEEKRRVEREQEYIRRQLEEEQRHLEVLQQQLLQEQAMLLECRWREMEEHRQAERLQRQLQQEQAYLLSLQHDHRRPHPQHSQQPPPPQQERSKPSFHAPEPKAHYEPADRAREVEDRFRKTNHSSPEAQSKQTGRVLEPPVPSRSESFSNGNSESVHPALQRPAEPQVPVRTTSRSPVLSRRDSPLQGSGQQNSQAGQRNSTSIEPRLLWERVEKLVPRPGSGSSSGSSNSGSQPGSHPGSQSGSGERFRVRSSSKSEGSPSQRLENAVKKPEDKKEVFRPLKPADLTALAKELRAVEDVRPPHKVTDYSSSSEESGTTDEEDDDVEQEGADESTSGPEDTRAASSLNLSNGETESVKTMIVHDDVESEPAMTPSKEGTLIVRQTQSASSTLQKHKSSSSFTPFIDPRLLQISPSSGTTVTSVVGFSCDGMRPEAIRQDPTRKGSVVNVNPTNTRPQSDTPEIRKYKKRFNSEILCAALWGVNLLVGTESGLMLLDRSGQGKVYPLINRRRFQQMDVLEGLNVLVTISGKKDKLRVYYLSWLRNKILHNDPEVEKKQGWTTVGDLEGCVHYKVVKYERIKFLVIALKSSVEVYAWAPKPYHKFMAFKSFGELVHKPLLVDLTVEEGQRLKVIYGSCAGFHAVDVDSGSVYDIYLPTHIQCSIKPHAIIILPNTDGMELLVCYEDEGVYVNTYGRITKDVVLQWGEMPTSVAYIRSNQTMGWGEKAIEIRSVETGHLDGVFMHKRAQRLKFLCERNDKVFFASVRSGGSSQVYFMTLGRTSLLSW
Method: (§1) Meanwhile, the same analogs were analyzed in a radiolabeled ATP assay (10 μM ATP; Reaction Biology Corp.) to compare the extent to which they could inhibit the activity of HGK, MLK1, or MLK3 in a cell-free environment (Table S3 and S4).

MLK3/MAP3K11 = biological target: T1, MLK3/MAP3K11 (Homo sapiens, UniProt Q16584); experiment: Radiolabeled ATP kinase assay (Reaction Biology Corp.), MLK3; format: biochemical; conditions: [Cmpd] 0.1 μM; 10 μM ATP
T1 construct: purchased Reaction Biology Corp
T1 sequence (Q16584 whole entry): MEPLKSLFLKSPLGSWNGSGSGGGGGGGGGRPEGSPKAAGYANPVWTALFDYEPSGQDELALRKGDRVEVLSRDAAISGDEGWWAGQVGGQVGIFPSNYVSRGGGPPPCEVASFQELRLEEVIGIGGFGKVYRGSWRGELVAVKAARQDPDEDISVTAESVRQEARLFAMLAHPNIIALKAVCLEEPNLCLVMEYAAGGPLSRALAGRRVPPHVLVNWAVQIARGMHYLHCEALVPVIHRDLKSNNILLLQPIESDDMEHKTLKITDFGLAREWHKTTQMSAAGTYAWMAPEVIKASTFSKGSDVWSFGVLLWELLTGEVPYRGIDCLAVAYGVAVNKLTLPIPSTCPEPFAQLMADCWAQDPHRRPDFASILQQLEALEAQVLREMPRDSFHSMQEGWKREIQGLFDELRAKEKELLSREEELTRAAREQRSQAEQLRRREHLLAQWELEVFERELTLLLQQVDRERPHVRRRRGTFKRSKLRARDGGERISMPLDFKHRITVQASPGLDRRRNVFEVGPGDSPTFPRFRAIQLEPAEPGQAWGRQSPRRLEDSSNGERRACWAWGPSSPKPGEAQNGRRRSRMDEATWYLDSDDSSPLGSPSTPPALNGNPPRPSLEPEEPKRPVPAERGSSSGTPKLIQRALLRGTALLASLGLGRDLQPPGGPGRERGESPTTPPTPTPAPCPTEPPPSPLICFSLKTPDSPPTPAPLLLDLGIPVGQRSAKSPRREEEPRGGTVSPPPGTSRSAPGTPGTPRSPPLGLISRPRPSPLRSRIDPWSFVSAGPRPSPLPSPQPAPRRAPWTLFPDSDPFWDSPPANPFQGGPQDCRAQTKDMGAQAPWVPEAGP
Method: as §1

[1] = system: human ES motor neurons carrying the ALS-causing SOD1^A4V mutation; experiment: cells; format: cell-based; conditions: for EC50 / viability at 1 µM / Emax: 72 h; for viability at 1 µM: CPA (33 μM) + compound (1 μM), read-out: Motor Neuron Survival, % untreated; for Emax: read-out: Emax (MN survival % untreated)
Method: Next, survival assays were performed with all the analogs at once to generate a low-variability dataset. All compounds were evaluated at concentrations ranging from 0.1-3.0 μM (five-point dilution) in three technical replicates and two biological replicates.

MLK1/MAP3K9 = biological target: T2, MLK1/MAP3K9 (Homo sapiens, UniProt P80192); experiment: Radiolabeled ATP kinase assay (Reaction Biology Corp.), MLK1; format: biochemical; conditions: [Cmpd] 0.1 μM, 10 μM ATP
T2 construct: purchased Reaction Biology Corp
T2 sequence (P80192 whole entry): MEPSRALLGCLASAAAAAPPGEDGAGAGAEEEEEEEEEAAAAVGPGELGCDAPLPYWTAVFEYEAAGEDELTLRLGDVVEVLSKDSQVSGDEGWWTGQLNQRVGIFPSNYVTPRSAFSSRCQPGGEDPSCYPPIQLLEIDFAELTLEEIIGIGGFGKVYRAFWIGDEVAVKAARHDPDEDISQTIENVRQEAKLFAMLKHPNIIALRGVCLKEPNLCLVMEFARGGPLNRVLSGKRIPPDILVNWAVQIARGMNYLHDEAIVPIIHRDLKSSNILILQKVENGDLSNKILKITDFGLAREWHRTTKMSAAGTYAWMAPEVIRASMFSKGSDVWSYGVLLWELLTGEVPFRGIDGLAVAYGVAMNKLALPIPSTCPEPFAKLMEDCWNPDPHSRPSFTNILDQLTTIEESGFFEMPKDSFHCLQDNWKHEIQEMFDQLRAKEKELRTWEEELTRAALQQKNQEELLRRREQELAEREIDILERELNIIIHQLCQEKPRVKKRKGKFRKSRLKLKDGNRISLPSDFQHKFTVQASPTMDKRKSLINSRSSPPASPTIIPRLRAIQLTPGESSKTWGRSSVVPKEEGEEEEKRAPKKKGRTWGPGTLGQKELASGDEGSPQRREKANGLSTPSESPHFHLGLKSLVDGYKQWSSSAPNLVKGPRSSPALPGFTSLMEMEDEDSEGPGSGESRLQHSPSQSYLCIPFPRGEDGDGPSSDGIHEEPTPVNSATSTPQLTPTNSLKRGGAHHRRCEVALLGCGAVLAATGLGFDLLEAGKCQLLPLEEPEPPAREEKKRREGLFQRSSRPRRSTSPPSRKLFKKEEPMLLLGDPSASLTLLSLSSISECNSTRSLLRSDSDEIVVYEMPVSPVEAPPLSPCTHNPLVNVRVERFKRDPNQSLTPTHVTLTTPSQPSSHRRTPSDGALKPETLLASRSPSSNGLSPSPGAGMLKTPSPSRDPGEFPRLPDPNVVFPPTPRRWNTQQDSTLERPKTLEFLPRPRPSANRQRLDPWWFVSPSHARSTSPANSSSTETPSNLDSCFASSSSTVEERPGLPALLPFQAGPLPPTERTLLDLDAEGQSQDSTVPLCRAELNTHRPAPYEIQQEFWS
Method: as §1

in vitro = conditions: CD-1, mouse, liver microsomes, pH 7.4
Method: To test the metabolic stability of the analogs, an in vitro microsomal stability assay was carried out.
The microsomal stability assay was performed in 96-well format (Perkin-Elmer, StorPlate-96U, PP, 96 well, round bottom). […] A stock solution of the compound to be analyzed (0.8 μL. 5 mM) or ethoxycoumarin (positive control, 0.8 μL, 5 mM) was added and the mixture was warmed to 37° C. for 5 minutes. The mouse microsomes (CD-1, 5 μL, thawed in a 37° C. water bath before use, 20 mg/mL, Life Technologies) were added. At selected time points (0, 15, 30, 45, 60 and 120 minutes) aliquots (15 μL) were withdrawn from the plate and quenched upon addition to cold acetonitrile (60 μL), containing an internal standard (5 μM) in a 96-well plate. The samples were centrifuged at 13,000 rpm for 10 minutes at 4° C. The supernatant (40 μL) was withdrawn and transferred to a sample vial with insert. The samples were analyzed by LC-MS.
LC-MS analysis was performed on a platform comprising a Thermo Scientific Dionex Ultimate 3000 and a Bruker amaZon SL equipped with an electrospray ionization source controlled by Bruker Hystar 3.2. […] The flow rate was maintained at 400 μL/min. The initial flow conditions were 60% solvent A (water containing 0.1% acetic acid) and 40% solvent B (methanol containing 0.1% acetic acid).
Aliquots were taken over the course of two hours and analyzed by HPLG-MS using an internal standard to assess compound stability over time.

[2] = Plasma and brain concentration 30 min after IP injection; format: in vivo, mouse; conditions: mice, ip dosing; for Kp at 30 min / concentration at 30 min: male, C57BL6/J, mouse; for Kp at 30 min: brain/plasma, read-out: B/P
Method: All studies were performed on 6-week old male C57BL6/J mice that were housed in the Columbia University Medical Center facility in a 12h light/dark cycle with access to food and water ad libitum. All animal procedures were approved by the Columbia University IACUC. […] Animals were weighed and injected once intraperitoneally (IP) at the indicated dose (10 or 20 mg/kg). After 30 min, animals were deeply anesthetized with 2.5% Avertin. Whole blood was collected by cardiac puncture in tubes containing 0.5M EDTA as an anticoagulant, and centrifuged for 10 min at 845 rcf at 4° to isolate plasma. Following cardiac puncture, animals were decapitated and brains were dissected and weighed. Brain samples were homogenized with a glass dounce homogenizer in 5 volumes of ddH2O. Brain and plasma samples were snap frozen in liquid nitrogen and stored at −80° C. before further processing.
The plasma samples were transferred to Eppendorf tubes (50 μL per sample) and diluted with acetonitrile (200 μL). The samples were sonicated for 1 minute followed by centrifugation at 16,000 rpm for 10 minutes. The supernatant was transferred to another Eppendorf tube and the solvent evaporated overnight. The samples were reconstituted in a mixture of 40 μL acetonitrile and 10 μL water transferred to a sample vial with insert, and analyzed by LC-MS.
The homogenized brain samples (250 μL) were transferred to Eppendorf tubes and diluted with acetonitrile (750 μL). The samples were sonicated for 1 minute followed by centrifugation at 16,000 rpm for 10 minutes. The supernatant (900 μL) was transferred to another Eppendorf tube and the solvent evaporated overnight. The samples were reconstituted in a mixture of 80 μL acetonitrile and 20 μL water, transferred to a sample vial with insert, and analyzed by LC-MS.
LC-MS analysis was performed on a platform comprising a Thermo Scientific Dionex Ultimate 3000 and a Bruker amaZon SL equipped with an electrospray ionization source controlled by Bruker Hystar 3.2. The compound concentration in each plasma sample was determined using a calibration curve. Chromatographic separation was performed by injecting 10 μL of the sample onto an Agilent Eclipse Plus C18 column (2.1×50 mm, 3.5 μm) maintained at 20° C. The flow rate was maintained at 400 μL/min. The initial flow conditions were 60% solvent A (water containing 0.1% acetic acid) and 40% solvent B (methanol containing 0.1% acetic acid). Solvent B was raised to 60% over 0.25 minutes and to 70% by 6.75 minutes.

[3] = Homo sapiens, Neuron, CPA 33 μM, read-out: EC50
[4] = Homo sapiens, Neuron, CPA 33 μM
[5] = read-out: % Enzyme Activity Remaining (relative to DMSO controls), MLK1/MAP3K9, Data 1
[6] = read-out: % Enzyme Activity Remaining (relative to DMSO controls), MLK1/MAP3K9, Data 2

Compound | remaining activity at 0.025 µM (HGK/MAP4K4) [%] | remaining activity at 0.1 µM (HGK/MAP4K4) [%] | % Enzyme Activity Remaining (relative to DMSO controls), MLK3/MAP3K11, Data 1 (MLK3/MAP3K11) [%] | % Enzyme Activity Remaining (relative to DMSO controls), MLK3/MAP3K11, Data 2 (MLK3/MAP3K11) [%] | EC50 [1, 3] [nM] | viability at 1 µM ([1]; Homo sapiens, Neuron) [%] | Emax [1, 4] [%] | remaining activity at 0.1 µM (MLK1/MAP3K9; [5]) [%] | remaining activity at 0.1 µM (MLK1/MAP3K9; [6]) [%] | other results
CCSCc1ccc2c(c1)c1c3c(c4c5cc(CSCC)ccc5n5c4c1n2[C@H]1C[C@](O)(C(=O)OC)[C@]5(C)O1)CNC3=O [CEP1347] | – | – | – | – | – | – | – | – | – | rescue of CPA toxicity (human ES motor neurons): dose-dependent rescue of CPA toxicity
CN1CCN(Cc2ccc(-c3cnc4[nH]cc(-c5cccc([N+](=O)[O-])c5)c4c3)cc2)CC1 [Compound 7p, 5-(4-((4-Methylpiperazin-1-yl)methyl)phenyl)-3-(3-nitrophenyl)-1H-pyrrolo[2,3-b]pyridine] | 3.92 | 1.56 | 40.84 | 42.08 | 293 | 116 | 131 | 62.7 | 62.9 | –
CN1CCN(Cc2ccc(-c3cnc4[nH]cc(-c5cnn(C)c5)c4c3)cc2)CC1 [Compound 7s, 3-(1-Methyl-1H-pyrazol-4-yl)-5-(4-((4-methylpiperazin-1-yl)methyl)phenyl)-1H-pyrrolo[2,3-b]pyridine] | 77.8 | 37 | 90.97 | 90.45 | 2190 | 42.9 | 100 | 94.8 | 94.3 | –
CN1CCN(Cc2ccc(-c3cnc4[nH]cc(-c5ccc(CN6CCOCC6)s5)c4c3)cc2)CC1 [Compound 7t, 4-((5-(5-(4-((4-Methylpiperazin-1-yl)methyl)phenyl)-1H-pyrrolo[2,3-b]pyridin-3-yl)thiophen-2-yl)methyl)morpholine] | 74.3 | 33.4 | 83.49 | 78.30 | 1380 | 43.6 | 77.3 | 82.1 | 80 | –
CN1CCN(Cc2ccc(-c3cnc4[nH]cc(-c5ccc(S(C)(=O)=O)nc5)c4c3)cc2)CC1 [Compound 7u, 5-(4-((4-Methylpiperazin-1-yl)methyl)phenyl)-3-(6-(methylsulfonyl)pyridin-3-yl)-1H-pyrrolo[2,3-b]pyridine] | 92.9 | 52.3 | 92.02 | 90.70 | 4600 | 33 | 72.9 | 93.9 | 95.9 | –
CN1CCN(Cc2ccc(-c3cnc4[nH]cc(-c5ccc6[nH]ncc6c5)c4c3)cc2)CC1 [Compound 7v, 5-(5-(4-((4-Methylpiperazin-1-yl)methyl)phenyl)-1H-pyrrolo[2,3-b]pyridin-3-yl)-1H-indazole] | 13.8 | 2.9 | 33.57 | 32.45 | 143 | 115 | 128 | 43 | 44 | –
CC(=O)c1ccc(-c2c[nH]c3ncc(-c4ccc(CN5CCN(C)CC5)cc4)cc23)cc1 [Compound 7x, 1-(4-(5-(4-((4-Methylpiperazin-1-yl)methyl)phenyl)-1H-pyrrolo[2,3-b]pyridin-3-yl)phenyl)ethan-1-one] | 30.8 | 7.1 | 67.84 | 65.08 | 322 | 78.1 | 78.1 | 65.8 | 67.7 | –
CN1CCN(Cc2ccc(-c3cnc4[nH]cc(-c5ccc(OC(F)(F)F)cc5)c4c3)cc2)CC1 [Compound 7z, 5-(4-((4-Methylpiperazin-1-yl)methyl)phenyl)-3-(4-(trifluoromethoxy)phenyl)-1H-pyrrolo[2,3-b]pyridine] | 96.4 | 67.9 | 93.59 | 94.16 | – | 11.2 | 12.8 | 98.6 | 99.2 | EC50 ([1]; CPA 33 μM): Ambiguous
CN1CC2CCC(C1)N2Cc1ccc(-c2cnc3[nH]cc(-c4cccc(Cl)c4)c3c2)cc1 [Compound 12f, 3-(3-Chlorophenyl)-5-(4-((3-methyl-3,8-diazabicyclo[3.2.1]octan-8-yl)methyl)phenyl)-1H-pyrrolo[2,3-b]pyridine] | – | – | – | – | 110 | – | 116 | – | – | half-life at 20 μM (in vitro): 2.63 h; concentration giving complete rescue from CPA ([1]; CPA 33 μM): 0.3 µM
O[C@@H]1CCN(Cc2ccc(-c3cnc4[nH]cc(-c5cccc(F)c5)c4c3)cc2)C1 [Compound 12i, (R)-1-(4-(3-(3-Fluorophenyl)-1H-pyrrolo[2,3-b]pyridin-5-yl)benzyl)pyrrolidin-3-ol] | – | – | – | – | 50 | – | 115 | – | – | Kp at 30 min ([2]; 10 mg/kg): 3.7; Kp at 30 min ([2]; 20 mg/kg): 2.8; concentration at 30 min ([2]; 10 mg/kg, read-out: brain): 2240 ng/g and 5.78 µM; concentration at 30 min ([2]; 10 mg/kg, read-out: plasma): < 600 ng/mL and < 1.55 µM; concentration at 30 min ([2]; 20 mg/kg, read-out: brain): 9780 ng/g and 25.2 µM; concentration at 30 min ([2]; 20 mg/kg, read-out: plasma): 3490 ng/mL and 9 µM
O[C@@H]1CCN(Cc2ccc(-c3cnc4[nH]cc(-c5cccc(Cl)c5)c4c3)cc2)C1 [Compound 12l, (R)-1-(4-(3-(3-Chlorophenyl)-1H-pyrrolo[2,3-b]pyridin-5-yl)benzyl)pyrrolidin-3-ol] | – | – | – | – | 90 | – | 115 | – | – | Kp at 30 min ([2]; 10 mg/kg): 1.7; concentration at 30 min ([2]; 10 mg/kg, read-out: brain): < 1000 ng/g and > 2.48 µM; concentration at 30 min ([2]; 10 mg/kg, read-out: plasma): < 600 ng/mL and < 1.49 µM; toxicity at this concentration ([2]; 20 mg/kg): ^cCompound was toxic at this concentration
CCN(CC)C(=O)c1ccc(Nc2nc(OCC3CCCCC3)c3[nH]cnc3n2)cc1 [NU6140] | – | – | – | – | – | – | – | – | – | rescue of CPA toxicity (human ES motor neurons): dose-dependent rescue of CPA toxicity
Cn1cc(/C=C2\C(=O)Nc3ccc(S(N)(=O)=O)cc32)c2ccccc21 [Syk inhibitor] | – | – | – | – | – | – | – | – | – | rescue of CPA toxicity (human ES motor neurons): dose-dependent rescue of CPA toxicity
JAK3 inhibitor IV | – | – | – | – | – | – | – | – | – | rescue of CPA toxicity (human ES motor neurons): dose-dependent rescue of CPA toxicity
